Key:
MCF-10A cells = assay: Antiproliferative activity, MTT assay, MCF-10A; type: cell-based; conditions: Homo sapiens, non-tumorigenic cells, mean ± SD
Experimental: (§1) The antiproliferative effect of monothiooxalamides 1a–d and 2a–d was assessed in MCF-7 (human breast cancer cell line with estrogen, progesterone, and glucocorticoid receptors), MDA-MB-231 (triple-negative human breast cancer), MCF-10A (non-tumorigenic human mammary epithelial cell line), and NIH/3T3 (mouse fibroblast). The cytotoxicity is expressed as IC50 values in micromolar concentrations, Table 4. […] In contrast, the cytotoxic effect on triple-negative cells MDA-MB-231 was similar to that observed in MCF-10A. […] Nevertheless, it is worth considering that NIH/3T3 are mouse fibroblasts, while the other three cell lines are human cells; therefore, the physiological differences between both species could play an essential role in the exerted effect. Several studies have evaluated 2-aminobenzothiazole derivatives against various cell lines. The targets of this kind of compounds are wide, including HDAC6, tyrosine kinase receptors family (CSF1R kinase, EGFR kinase, VEGFR-2 kinase, FAK kinase), serine/threonine kinases, lysine-specific demethylase (LSD1), phosphoinositide 3-kinase (PI3K), topoisomerases (I and II), Heat shock protein (HSP90), p53, nuclear receptor binding set (NSD1), microsomal prostaglandin E synthase-1 (mPGES-1), and also as chelators of metal ions, which are necessaries for critical biological processes such as gene expression, oxygen transport, and cell respiration. In all cases, the IC50 values were reported in a wide range, from 1 nM to 50 µM. On the other hand, our research group reported a family of MTAs containing 2-aminopyridine, with an activity range of 0.19–18 µM against several human cancer cell lines (A2780-wt, A2780-cis-MSTO-211H, and HT-29). […] Whereas 1c could be a feasible candidate to obtain better results compared with 1a, 2a–c, which were highly cytotoxic to non-tumorigenic cells. As a perspective, the synergic activity of 1c, in combination with antioxidants like curcumin, resveratrol, and quercetin, could also be explored, with the aim to sensitize cancer cells against cytotoxic agents and diminish their toxicity in non-tumorigenic cells. In contrast, MTX, which is an antineoplastic drug, is widely used for many kinds of cancer treatments, including breast cancer. Their mechanism of action is related to the inhibition of dihydrofolate reductase (DHFR). […] Nevertheless, MTX exerted an undesirable effect on NIH/3T3 cells. Although the compounds were not better than MTX, their antiproliferative effect was similar to 2ABT, thioureas, 3-carboxy-coumarin sulfonamides, pyrimethamine conjugates, and N-hydroxycinnamide analogs. Highlighting its low toxicity to non-tumor cells, 1c might be a better option than methotrexate to reduce adverse side effects associated with chemotherapy.
(§2) MDA-MB-231 adenocarcinoma cell line was procured from ATCC (CRM-HTB-26TM). […] Cell culture was performed in the appropriate medium for each cell line (MCF-7, MDA-MB-231, MCF-10A, and NIH/3T3). MCF-7, MDA-MB-231, and NIH/3T3 cells were grown in Dulbecco’s modified Eagle Medium (DMEM) high-glucose with phenol red, supplemented with fetal bovine serum inactivated by heat (10%) (BioWest, Miami, FL, USA) and antibiotic (100 U/mL penicillin and […] streptomycin). MCF-10A were grown in DMEM-F12 medium, supplemented with 5% of horse serum inactivated by heat (Biowest, Miami, FL, USA), […] of insulin, 20 ng/mL of epidermal growth factor, 500 ng/mL hydrocortisone, and antibiotic (100 U/mL penicillin and […] streptomycin). All cell lines were incubated at 37 °C with 5% CO2 after reaching 80% confluence at 24 h. The cells were seeded in a 96-well cell culture plate (10,000 cells/well). After incubation, the cells were treated with compounds (1a–1d and 2a–2d) at varying concentrations (100, 50, 25, 12.5, and 6.25 µM) and then incubated for 42 h under standard conditions. […]

NIH/3T3 cells [1] = assay: Antiproliferative activity, MTT assay, NIH/3T3; type: cell-based; conditions: NIH3T3, mouse fibroblast, mean ± SD
Experimental: as §1
as §2, with “streptomycin).” for “streptomycin). All cell lines were incubated at 37 °C with 5% CO2 after reaching 80% confluence at 24 h. The cells were seeded in a 96-well cell culture plate (10,000 cells/well). After incubation, the cells were treated with compounds (1a–1d and 2a–2d) at varying concentrations (100, 50, 25, 12.5, and 6.25 µM) and then incubated for 42 h under standard conditions.”

MDA-MB-231 cells [2] = assay: Antiproliferative activity, MTT assay, MDA-MB-231; type: cell-based; conditions: Homo sapiens, mean ± SD of at least three independent experiments
Experimental: as §1, §2

MCF-7 cells [3] = assay: Antiproliferative activity, MTT assay, MCF-7; type: cell-based, human; conditions: for IC50: Homo sapiens, MCF7, MTT, mean ± SD of at least three independent experiments
Experimental: as §1, §2

MCF-7 cells [4] = assay: Annexin V apoptosis induction assay, MCF-7; type: cell-based, human; conditions: MCF-7, IC50 concentration, 48 h
Excerpt: (§3) Apoptosis induction is one of the most common mechanisms of cell death exerted by antineoplastic drugs. This is because cancer cells can evade this cell death mechanism, allowing malignant cells to survive and leading to tumor progression. Apoptosis involves several physiological cell modifications, including the destabilization of the phospholipid bilayer and the subsequent exposure of phosphatidylserine. This phospholipid can be easily recognized by annexin V, a protein that is useful for identifying apoptotic cells. Therefore, apoptosis was determined for both breast cancer human cell lines, MCF-7 and MDA-MB-231, and the NIH/3T3 non-tumoral cell line. […] Regarding non-malignant fibroblast cells (NIH/3T3), a slight decrease in live cells was observed only for compound 1c (60%) compared to the control (81%) and MTX (72%), as shown in Figure 12.
(§4) The annexin V cytometry assay was performed on malignant cells (MCF-7 and MDA-MB-231) and non-malignant cells (NIH/3T3) using the Annexin V-FITC Apoptosis Detection kit (Santa Cruz Biotechnology). The corresponding cells were seeded in a 12-well plate as previously described and incubated under standard conditions (1.5 × 10^5 cells/well). After 24 h of incubation, the exhausted medium was replaced, and cells were treated at the IC50 concentration for compound 1c and MTX. […]

MDA-MB-231 cells [5] = assay: Wound closure (cell migration) assay; type: cell-based, human; conditions: MDA-MB-231, treated at IC50 concentration; for wound closure rate: 0-48 h; for maximum wound closure: 48 h
Experimental: The triple-negative cancer, produced by MDA-MB-231 cells, is highly invasive and metastatic, capable of migrating to other tissues. […] The wound closure begins at 12 h, at this time, there is a significant difference between cells treated with compound 1c and MTX compared with non-treated cells. Nevertheless, the maximum effect is observed at 48 h, when wound closure is complete for non-treated cells. For cells treated with compound 1c, the maximum wound closure was 51%, while for the reference drug, MTX, it was 38% at 48 h. In both cases, there is a significant difference from the control, with wound closure rates of −2.0 ± 0.1 (R = 0.98), −1.0 ± 0.1 (R = 0.94), and −0.7 ± 0.1 (0.88) in %area/h for control, 1c, and MTX, respectively. The results confirmed the capability of 1c to prevent cell migration in MDA-MB-231 cells, similar to the reference drug MTX, and other reported BTs.
The wound closure assay was performed according to the reported methods on MDA-MB-231 cell line. For this purpose, cells (2 × 10^5) were seeded in complete medium on a 24-well plate and incubated for 24 h under standard conditions. After that, the wound gap was made by scratching the cell monolayer with a 200 µL pipette tip. Cell debris and exhausted medium were discarded, washed with PBS, and the medium was replaced. […] The wound closure was monitored by microscopy at 12, 24, and 48 h, and the wound area was measured in duplicate in three independent experiments using ImageJ (1.54k) software. The results were expressed as a percentage of the control (cell culture medium with 0.1% DMSO).

MDA-MB-231 cells [6] = assay: Annexin V apoptosis induction assay, MDA-MB-231; type: cell-based, human; conditions: MDA-MB-231, IC50 concentration, 48 h
Excerpt: as §3
The annexin V cytometry assay was performed on malignant cells (MCF-7 and MDA-MB-231) and non-malignant cells (NIH/3T3) using the Annexin V-FITC Apoptosis Detection kit (Santa Cruz Biotechnology). The corresponding cells were seeded in a 12-well plate as previously described and incubated under standard conditions (1.5 × 10^5 cells/well). After 24 h of incubation, the exhausted medium was replaced, and cells were treated at the IC50 concentration for compound 1c and MTX. After 48 h, the exhausted medium was recovered for cytometric measurements, and the cells were trypsinized, inactivated with DMEM, centrifuged, washed with PBS and centrifuged (1500 rpm, 5 min, 4 °C). The PBS was removed, and the remainder was drained on gauze. The formed pellet was shaken with 300 µL of the buffer from the flow cytometry kit (Miltenyi Biotec, Bergisch Gladbach, Germany), which had previously been prepared at a concentration of 1%. The sample was left to incubate for 15 min at room temperature, protected from light, and then 100 µL aliquots were taken to the flow cytometry equipment (BD FACSAria Fusion, Franklin Lakes, NJ, USA). Five microliters of annexin and two microliters of propidium iodide (100 µg/mL) were added to the reaction with the cells. […]

NIH/3T3 cells [7] = assay: Annexin V apoptosis induction assay, NIH/3T3; type: cell-based, mouse; conditions: NIH/3T3, IC50 concentration, 48 h; control 81%
Excerpt: as §3, §4

SMILES | IC50 (MDA-MB-231 cells [2]) | IC50 (MCF-7 cells [3]) | IC50 (MCF-10A cells) | IC50 (NIH/3T3 cells [1]) | late apoptosis cell population (MCF-7 cells [4]) | wound closure rate (MDA-MB-231 cells [5]) | maximum wound closure (MDA-MB-231 cells [5]) | effect on cell viability (MDA-MB-231 cells [6]) | selectivity toward malignant cells, fold more active in MCF-7 than in MCF-10A (MCF-7 cells [3]; MCF-7 vs MCF-10A) | fold more active on MCF-7 cells than on MDA-MB-231 cells (MCF-7 cells [3]; MCF-7 vs MDA-MB-231) | live cells (NIH/3T3 cells [7]) | percentage of late apoptotic cells (MDA-MB-231 cells [6]; non-treated cells 14%)
O=C(Nc1nc2ccccc2s1)C(=S)NCc1ccccc1 [1a, N-(benzo[d]thiazol-2-yl)-2-(benzylamino)-2-thioxoacetamide] | 72 ± 7 µM | 95 ± 13 µM | 44 ± 6 µM | 29 ± 6 µM |  |  |  |  |  |  |  | 
COc1ccccc1CNC(=S)C(=O)Nc1nc2ccccc2s1 [1b, N-(benzo[d]thiazol-2-yl)-2-((2-methoxybenzyl)amino)-2-thioxoacetamide] | > 100 µM | > 100 µM |  |  |  |  |  |  |  |  |  | 
COc1ccc(CNC(=S)C(=O)Nc2nc3ccccc3s2)cc1 [1c, N-(benzo[d]thiazol-2-yl)-2-((4-methoxybenzyl)amino)-2-thioxoacetamide] | 52 ± 8 µM | 32 ± 5 µM | 55 ± 6 µM | 41 ± 5 µM | significant increase | −1.0 ± 0.1 %area/h | 51% | did not show a significant effect | 1.7 fold | 1.6 fold | 60% | 
O=C(Nc1nc2ccccc2s1)C(=S)NCCc1ccccc1 [1d, N-(benzo[d]thiazol-2-yl)-2-(phenethylamino)-2-thioxoacetamide] | > 100 µM | > 100 µM |  |  |  |  |  |  |  |  |  | 
CN(Cc1cnc2nc(N)nc(N)c2n1)c1ccc(C(=O)N[C@@H](CCC(=O)O)C(=O)O)cc1 [MTX, methotrexate, reference compound] | 28 ± 3 µM | 0.8 ± 0.1 µM | 14 ± 3 µM | 26 ± 5 µM | significant increase | −0.7 ± 0.1 %area/h | 38% | did not show a significant effect |  |  | 72% | 9%

Second part, led by results:

IC50 (MDA-MB-231 cells [2]) | IC50 (MCF-7 cells [3]) | SMILES | IC50 (MCF-10A cells) | IC50 (NIH/3T3 cells [1]) | late apoptosis cell population (MCF-7 cells [4]) | wound closure rate (MDA-MB-231 cells [5]) | maximum wound closure (MDA-MB-231 cells [5]) | effect on cell viability (MDA-MB-231 cells [6]) | selectivity toward malignant cells, fold more active in MCF-7 than in MCF-10A (MCF-7 cells [3]; MCF-7 vs MCF-10A) | fold more active on MCF-7 cells than on MDA-MB-231 cells (MCF-7 cells [3]; MCF-7 vs MDA-MB-231) | live cells (NIH/3T3 cells [7]) | percentage of late apoptotic cells (MDA-MB-231 cells [6]; non-treated cells 14%)
> 100 µM | 72 ± 9 µM | Cc1ccc2nc(NC(=O)C(=S)NCc3ccccc3)sc2c1 [2a, 2-(benzylamino)-N-(6-methylbenzo[d]thiazol-2-yl)-2-thioxoacetamide] | 43 ± 6 µM | 22 ± 4 µM |  |  |  |  |  |  |  | 
> 100 µM | > 100 µM | COc1ccccc1CNC(=S)C(=O)Nc1nc2ccc(C)cc2s1 [2b, 2-((2-methoxybenzyl)amino)-N-(6-methylbenzo[d]thiazol-2-yl)-2-thioxoacetamide] | 42 ± 5 µM |  |  |  |  |  |  |  |  | 
> 100 µM | 88 ± 6 µM | COc1ccc(CNC(=S)C(=O)Nc2nc3ccc(C)cc3s2)cc1 [2c, 2-((4-methoxybenzyl)amino)-N-(6-methylbenzo[d]thiazol-2-yl)-2-thioxoacetamide] | 74 ± 12 µM | 31 ± 6 µM |  |  |  |  |  |  |  | 
> 100 µM | > 100 µM | Cc1ccc2nc(NC(=O)C(=S)NCCc3ccccc3)sc2c1 [2d, N-(6-methylbenzo[d]thiazol-2-yl)-2-(phenethylamino)-2-thioxoacetamide] |  |  |  |  |  |  |  |  |  | 

— article PMC12429841, “Monothiooxalamide–Benzothiazole Hybrids: Predictive Docking on HDAC6, Synthesis, Molecular Structure, and Antiproliferative Activity on Breast Cancer Cells” (International Journal of Molecular Sciences, 2025)
